Patent US20130071328A1, “Propynoic Acid Carbamoyl Methyl-Amides and Pharmaceutical Compositions and Methods Based Thereon” (UNIVERSITY OF SOUTHERN CALIFORNIA, priority 2011, published 2013)

What was measured:
[1] = tested on: MDA-MB-435 breast cancer cell line; test: MTT cytotoxicity assay, MDA-MB-435; format: cell-based, human; conditions: Homo sapiens, MDA-MB-435, 72 h, 72 h exposure
Source text: (§1) The human breast cancer cell line MDA-MB-435 and the colon cancer cell line HT29 were purchased from the American Type Cell Culture (Manassas, Va.). Colon cancer cell lines HCT116 p53^+/+ and HCT116 p53^−/− were kindly provided by Dr. Bert Vogelstein (Johns Hopkins Medical Institutions, Baltimore, Md.). The human ovarian carcinoma cell line (HEY), naturally resistant to cisplatin (CDDP), was kindly provided by Dr. Louis Dubeau (USC Norris Cancer Center). The bladder cancer cell lines were kindly provided by Dr. Richard Cote (USC Keck School of Medicine). Cells were maintained as monolayer cultures in the appropriate media: RPMI-1640 (HT29, HCT116 p53^+/+, HCT116 p53^−/−, and HEY cell lines) or DMEM (MDA-MB-435 and UMUC3 cell lines) supplemented with 10% fetal bovine serum (FBS) (HyClone, Road Logan, Utah) at 37° C. in a humidified atmosphere of 5% CO2. To remove the adherent cells from the flask for subculture and counting, cells were washed with PBS without calcium or magnesium, incubated with a small volume of 1×trypsin-EDTA solution (Sigma-Aldrich, St. Louis, Mo.) for 5 min, resuspended with fresh culture medium, and centrifuged at 1200 rpm for 5 min. All experiments were performed using cells in exponential growth phase. Cells were routinely checked for Mycoplasma contamination using PlasmaTest kit (InvivoGen, San Diego, Calif.).
(§2) Cytotoxicity was assessed by MTT assay as described previously. 43 In brief, cells were seeded in 96-well microtiter plates and allowed to attach overnight. Cells were subsequently treated with continuous exposure to corresponding drugs for 72 h. At the end of treatments, an MTT solution (at a final concentration of 0.5 mg/mL) was added to each well, and cells were incubated for 4 h at 37° C. After removal of the supernatant, DMSO was added, and the absorbance was read at 570 nm. All assays were done in triplicate. The IC50 was then determined for each drug from a plot of log(drug concentration) versus percentage of cells killed.

[2] = tested on: HCT116 p53^−/− colon cancer cell line; test: MTT cytotoxicity assay, HCT116 p53-/-; format: cell-based; conditions: Homo sapiens, HCT-116, 72 h exposure
Source text: as §1, §2

[3] = tested on: HEY ovarian cancer cell line; test: Cytotoxicity assay, HEY; format: cell-based; conditions: Homo sapiens; MTT, 72 h exposure (Table 2)
Source text: as §1, §2

[4] = tested on: doxorubicin-resistant NCI/ADR-RES ovarian cancer cell line; test: Cytotoxicity assay, NCI/ADR-RES; format: cell-based; conditions: Homo sapiens, MTT, 72 h exposure (Table 2)
Protocol: as §2

[5] = tested on: UMUC3 bladder cancer cell line; test: MTT cytotoxicity assay, UMUC3; format: cell-based; conditions: Homo sapiens, 72 h exposure
Source text: as §1, §2

[6] = tested on: HCT116 p53^+/+ colon cancer cell line; test: MTT cytotoxicity assay, HCT116 p53+/+; format: cell-based; conditions: Homo sapiens, HCT-116, 72 h exposure
Source text: as §1, §2

[7] = tested on: HT29 colon cancer cell line; test: MTT cytotoxicity assay, HT29; format: cell-based; conditions: Homo sapiens, HT-29, 72 h exposure
Source text: as §1, §2

[8] = tested on: 5637 bladder cancer cell line; test: MTT cytotoxicity assay, 5637; format: cell-based, human; conditions: Homo sapiens, 72 h exposure
Source text: as §1, §2

| Structure (SMILES) | IC50 [1] [µM] | IC50 [2] [µM] | IC50 [3] [µM] | IC50 [4] [µM] | IC50 [5] [µM] | IC50 [6] [µM] | IC50 [7] [µM] | IC50 [8] [µM] |
| --- | --- | --- | --- | --- | --- | --- | --- | --- |
| C#CC(=O)N(c1ccc(OC)c(OC)c1)C(C(=O)NC1CCCC1)c1cccs1 (centres unmarked) [Compound 3, N-[2-(Cyclopentylamino)-2-oxo-1-thien-2-ylethyl]-N-(3,4-dimethoxyphenyl)Propynamide] | 2 ± 0.1 | 9.6 ± 4.9 | 3.4 ± 1.5 | 0.9 ± 0.8 | > 20 | 7.7 ± 1.9 | 5.5 ± 4.2 | 2 ± 0.7 |
| C#CC(=O)N(c1ccc(OC)cc1OC)C(C(=O)NC1CCCC1)c1cccs1 (centres unmarked) [Compound 5, N-[2-(Cyclopentylamino)-2-oxo-1-thien-2-ylethyl]-N-(2,4-dimethoxyphenyl)Propynamide] | 1.7 ± 0.5 | 7 ± 0.7 | 4.1 ± 3.4 | 0.4 | > 20 | 6.9 ± 0.6 | 2.3 ± 0.3 | 1.7 ± 0.8 |
| C#CC(=O)N(c1cccc(OC)c1)C(C(=O)NC1CCCC1)c1cccs1 (centres unmarked) [Compound 6, N-[2-(Cyclopentylamino)-2-oxo-1-thien-2-ylethyl]-N-(3-methoxyphenyl)Propynamide] | – | 5.6 ± 0.8 | 1.9 ± 0.7 | 0.3 | 6.9 ± 1.2 | 7.2 ± 0.2 | 2.3 ± 0.3 | 0.3 |
| C#CC(=O)N(c1cc(OC)ccc1OC)C(C(=O)NC1CCCC1)c1cccs1 (centres unmarked) [Compound 7, N-[2-(Cyclopentylamino)-2-oxo-1-thien-2-ylethyl]-N-(2,5-dimethoxyphenyl)Propynamide] | 0.5 ± 0.3 | 4.7 ± 2.3 | 1.5 ± 1.1 | 0.3 | 5.7 ± 1.5 | 5.7 ± 0.6 | 1.6 ± 1 | 0.3 |
| C#CC(=O)N(c1ccc2c(c1)OCCO2)C(C(=O)NC1CCCC1)c1ccccc1 (centres unmarked) [Compound 8, N-[2-(Cyclopentylamino)-2-oxo-1-phenylethyl]-N-(2,3-dihydro-1,4-benzodioxin-6-yl)Propynamide] | 1.8 ± 0.6 | > 20 | 4.1 ± 3.4 | 0.3 | > 20 | 17.3 ± 1.1 | 3.2 ± 1.2 | 1.9 ± 0.6 |
| C#CC(=O)N(Cc1ccco1)C(C(=O)NC1CCCC1)c1ccccc1F (centres unmarked) [Compound 10, N-[2-(Cyclopentylamino)-1-(2-fluorophenyl)-2-oxoethyl]-N-(2-furylmethyl)Propynamide] | 1.7 ± 0.6 | 13 ± 2.8 | 4.3 ± 3.9 | 1.2 ± 0.4 | > 20 | 10.5 | > 10 | 2.9 ± 0.8 |
